Measurements: ChEMBL document CHEMBL1136501 (Bioorg Med Chem Lett, 2003)

Assays:
[1] = target: T1, Sodium-dependent serotonin transporter (Homo sapiens, UniProt P31645)
Target sequence in this assay (P31645 whole entry): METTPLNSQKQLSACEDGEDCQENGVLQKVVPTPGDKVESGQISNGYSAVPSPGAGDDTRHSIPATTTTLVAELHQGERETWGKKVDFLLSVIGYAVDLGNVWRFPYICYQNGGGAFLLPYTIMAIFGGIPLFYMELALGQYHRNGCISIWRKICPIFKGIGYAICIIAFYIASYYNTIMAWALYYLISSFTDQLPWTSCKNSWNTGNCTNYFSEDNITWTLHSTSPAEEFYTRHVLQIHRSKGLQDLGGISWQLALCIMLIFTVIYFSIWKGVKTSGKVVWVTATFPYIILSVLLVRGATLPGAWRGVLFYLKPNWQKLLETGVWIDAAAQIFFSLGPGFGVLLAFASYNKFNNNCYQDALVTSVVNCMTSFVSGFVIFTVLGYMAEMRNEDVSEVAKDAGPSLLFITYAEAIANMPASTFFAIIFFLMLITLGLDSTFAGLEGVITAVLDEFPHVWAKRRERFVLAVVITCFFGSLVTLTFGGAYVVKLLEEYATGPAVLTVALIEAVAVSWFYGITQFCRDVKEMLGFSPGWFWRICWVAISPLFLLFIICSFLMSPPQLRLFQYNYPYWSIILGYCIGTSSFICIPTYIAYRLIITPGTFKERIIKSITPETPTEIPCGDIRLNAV
Description: Binding affinity to serotonin transporter, using [3H]citalopram as radioligand

[2] = target: T2, Sodium-dependent noradrenaline transporter (Homo sapiens, UniProt P23975)
Description: Inhibition of [3H]nisoxetine binding to norepinephrine (NE) transporter

[3] = target: T1, Sodium-dependent serotonin transporter; assay: Binding affinity at serotonin transporter, using [3H]citalopram as radioligand at a concentration of 0.1 uM
Target sequence in this assay (P31645 whole entry, looked up): as the sequence (P31645 whole entry) above

[4] = target: T2, Sodium-dependent noradrenaline transporter; assay: Inhibition of [3H]nisoxetine binding to norepinephrine transporter; settings: concentration not given here
Rattus norvegicus [5] = species on record: Rattus norvegicus
Description: Inhibition of serotonin uptake into rat synaptosomes

Rattus norvegicus [6] = species on record: Rattus norvegicus; remark: listed apart in the source
Description: Inhibition of norepinephrine uptake into rat synaptosomes

Rattus norvegicus [7] = species on record: Rattus norvegicus; remark: listed apart in the source
Description: Inhibition of dopamine uptake into rat synaptosomes

T2 sequence (P23975 whole entry): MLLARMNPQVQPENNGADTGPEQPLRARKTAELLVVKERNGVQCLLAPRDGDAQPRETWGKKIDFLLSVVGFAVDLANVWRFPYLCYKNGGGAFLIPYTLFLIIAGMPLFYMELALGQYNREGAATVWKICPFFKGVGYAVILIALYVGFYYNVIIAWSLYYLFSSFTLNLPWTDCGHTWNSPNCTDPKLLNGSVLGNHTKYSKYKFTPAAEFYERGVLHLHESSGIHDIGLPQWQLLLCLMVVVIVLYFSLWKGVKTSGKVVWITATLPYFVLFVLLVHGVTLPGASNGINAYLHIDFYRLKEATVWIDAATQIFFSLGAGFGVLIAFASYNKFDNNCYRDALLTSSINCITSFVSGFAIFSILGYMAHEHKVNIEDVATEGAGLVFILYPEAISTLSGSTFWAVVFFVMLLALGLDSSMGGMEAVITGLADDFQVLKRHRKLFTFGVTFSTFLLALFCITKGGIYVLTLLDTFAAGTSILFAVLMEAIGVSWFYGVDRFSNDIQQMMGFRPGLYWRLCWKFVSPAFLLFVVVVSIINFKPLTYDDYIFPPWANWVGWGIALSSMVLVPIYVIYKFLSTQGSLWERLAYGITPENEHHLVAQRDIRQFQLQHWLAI

| SMILES | Ki [1] [nM] | Ki [2] [nM] | inhibition [4] [%] | other results |
| --- | --- | --- | --- | --- |
| CNCCOc1cccc2ccccc12 |  |  | 17 | inhibition [3]: 2% |
| CNCCCOc1cccc2ccccc12 | 75 |  | 25 |  |
| CNCCC(Oc1cccc2ccccc12)c1nccs1 (centres undefined) | 6.4 | 55 |  |  |
| CNCCCCOc1cccc2ccccc12 | 31 |  | 25.5 |  |
| CNCCC(Oc1cccc2ccccc12)c1ccc(C(F)(F)F)cc1 (centres undefined) | 14.5 |  | 55 |  |
| CNCCCOc1ccc2ccccc2c1 |  |  | 39 | inhibition [3]: 23% |
| CNCCC(Oc1cccc2ccccc12)c1cccc(Br)c1 (centres undefined) | 7.6 | 67 |  |  |
| CNCCC(Oc1cccc2ccccc12)c1cccc(C(F)(F)F)c1 (centres undefined) | 19 | 70 |  |  |
| CNCCC(Oc1cccc2ccccc12)c1ccccc1C(F)(F)F (centres undefined) | 10 |  | 38 |  |
| CNCCC(Oc1cccc2ccccc12)c1ccc(Br)cc1 (centres undefined) | 4.1 | 160 |  |  |
| CNCC[C@@H](Oc1ccccc1C)c1ccccc1 [ATOMOXETINE] |  |  |  | Ki (Rattus norvegicus [5]): 1500 nM; Ki (Rattus norvegicus [6]): 4 nM; Ki (Rattus norvegicus [7]): 2000 nM |
| CNCCCCCOc1cccc2ccccc12 |  |  | 23 | inhibition [3]: 35.5% |
| CNCCCCOc1ccc2ccccc2c1 |  |  | 17 | inhibition [3]: 32% |

Continued by falling Ki [1], values first:

| Ki [1] [nM] | Ki [2] [nM] | inhibition [4] [%] | SMILES | other results |
| --- | --- | --- | --- | --- |
| 4 | 40 |  | CNCCC(Oc1cccc2ccccc12)c1cccc(C)c1 (centres undefined) |  |
| 3.8 | 78 |  | CNCCC(Oc1cccc2ccccc12)c1ccc(Cl)cc1 (centres undefined) |  |
| 3.5 | 74 |  | CNCCC(Oc1cccc2ccccc12)c1ccc(OC)cc1 (centres undefined) |  |
| 2.4 | 20 |  | CNCCC(Oc1cccc2ccccc12)c1ccccc1 (centres undefined) |  |
| 2.3 |  | 56 | CNCCC(Oc1cccc2ccccc12)c1ccccc1OC (centres undefined) |  |
| 2.2 | 81 |  | CNCCC(Oc1cccc2ccccc12)c1cccc(OC)c1 (centres undefined) |  |
| 2.1 | 36 |  | CNCCC(Oc1cccc2ccccc12)c1ccc(C)cc1 (centres undefined) |  |
| 2 | 110 |  | CNCCC(Oc1cccc2ccccc12)c1ccccc1C (centres undefined) |  |
| 1.1 | 21 |  | CNCCC(Oc1cccc2ccccc12)c1ccsc1 (centres undefined) |  |
| 0.95 | 42 |  | CNCCC(Oc1cccc2ccccc12)c1ccc(F)cc1 (centres undefined) |  |
| 0.7 | 20 |  | CNCCC(Oc1cccc2ccccc12)c1ccco1 (centres undefined) |  |
